Laboratory results as given in ChEMBL document CHEMBL5042543, “Bridged Piperidine Analogues of a High Affinity Naphthalene-Based P2Y14R Antagonist” (J Med Chem, 2022).
Values after ≈ are worked out from the molar mass of the structure shown. Active and inactive are the calls of the source. The rule behind the calls is not given here.

Assays:
[1] = target: Sigma intracellular receptor 2 (Homo sapiens, UniProt Q5BJF2); test: Inhibition of sigma 2 receptor (unknown origin) assessed as binding constant
[2] = Stability of the compound in simulated intestinal fluid assessed as parent compound remaining at 120 mins; type: ADME; details: simulated gi fluid, 2 h
[3] = Stability of the compound in simulated gastric fluid assessed as parent compound remaining at 120 mins by NMR analysis; type: ADME; details: simulated gi fluid, 2 h
[4] = Stability in rat plasma assessed as compound remaining after 120 mins; type: ADME, cell-free; details: 2 h
[5] = Stability in mouse plasma assessed as compound remaining after 120 mins; type: ADME, cell-free; details: 2 h
[6] = Stability in mouse liver microsomes assessed as half life; type: ADME, Microsome
[7] = Stability in rat liver microsomes assessed as half life; type: ADME, Microsome
[8] = Stability in human liver microsomes assessed as half life; type: ADME, Microsome
HepG2 = test: Cytotoxicity against human HepG2 cells; type: toxicity, cell-based
[9] = Half life in Wistar rat at 0.5 mg/kg, iv; type: ADME, organism-based; details: in vivo
[10] = Half life in Wistar rat at 1 mg/kg, ip; type: ADME, organism-based; details: in vivo
[11] = Plasma protein binding in mouse assessed as bound fraction; type: ADME, cell-free
[12] = Plasma protein binding in rat assessed as bound fraction; type: ADME, cell-free
[13] = Plasma protein binding in human assessed as bound fraction; type: ADME, cell-free
Mus musculus [14] = test: Antiinflammatory activity in C57BL/6J mouse model of ovalbumin/Aspergillus-induced allergic asthma assessed as reduction in recruitment of immune cells into lungs at 10 mg/kg, ip administered 30 mins prior to allergen challenge and measured after 16 days; type: functional, organism-based; details: time 16.0 day
[15] = Aqueous solubility of the compound at pH 4; details: buffer
[16] = Distribution coefficient, logD of compound at pH 7.4 by HPLC analysis; type: physicochemical; details: octanol/water
[17] = Toxicity in Hsd:ICR (CD-1) mouse at 10 micromol/kg, ip; details: in vivo, dose 10 µmol/kg
[18] = target: T1, Muscarinic acetylcholine receptor M1 (Homo sapiens, UniProt P11229); test: Inhibition of muscarinic M1 receptor (unknown origin) assessed as binding constant
T1 sequence (P11229 whole entry): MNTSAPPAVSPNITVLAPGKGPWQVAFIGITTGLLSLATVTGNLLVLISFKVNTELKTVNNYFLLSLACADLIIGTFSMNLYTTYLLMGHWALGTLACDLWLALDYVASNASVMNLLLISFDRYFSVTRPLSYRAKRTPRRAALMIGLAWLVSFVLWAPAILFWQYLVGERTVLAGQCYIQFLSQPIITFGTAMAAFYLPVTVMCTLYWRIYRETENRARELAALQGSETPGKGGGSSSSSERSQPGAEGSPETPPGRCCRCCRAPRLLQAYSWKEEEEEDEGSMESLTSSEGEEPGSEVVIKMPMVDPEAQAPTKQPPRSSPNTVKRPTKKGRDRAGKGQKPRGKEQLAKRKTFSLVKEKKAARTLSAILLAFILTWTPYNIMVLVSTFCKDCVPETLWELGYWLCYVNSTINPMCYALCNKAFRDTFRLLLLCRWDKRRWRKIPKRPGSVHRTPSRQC

liver carboxylesterase = target: T2, liver carboxylesterase (Sus scrofa, UniProt Q29550); test: Stability of the compound in aqueous medium at pH 7.4 assessed as half life in presence of porcine liver esterase; type: physicochemical; details: pig
T2 sequence (Q29550 whole entry): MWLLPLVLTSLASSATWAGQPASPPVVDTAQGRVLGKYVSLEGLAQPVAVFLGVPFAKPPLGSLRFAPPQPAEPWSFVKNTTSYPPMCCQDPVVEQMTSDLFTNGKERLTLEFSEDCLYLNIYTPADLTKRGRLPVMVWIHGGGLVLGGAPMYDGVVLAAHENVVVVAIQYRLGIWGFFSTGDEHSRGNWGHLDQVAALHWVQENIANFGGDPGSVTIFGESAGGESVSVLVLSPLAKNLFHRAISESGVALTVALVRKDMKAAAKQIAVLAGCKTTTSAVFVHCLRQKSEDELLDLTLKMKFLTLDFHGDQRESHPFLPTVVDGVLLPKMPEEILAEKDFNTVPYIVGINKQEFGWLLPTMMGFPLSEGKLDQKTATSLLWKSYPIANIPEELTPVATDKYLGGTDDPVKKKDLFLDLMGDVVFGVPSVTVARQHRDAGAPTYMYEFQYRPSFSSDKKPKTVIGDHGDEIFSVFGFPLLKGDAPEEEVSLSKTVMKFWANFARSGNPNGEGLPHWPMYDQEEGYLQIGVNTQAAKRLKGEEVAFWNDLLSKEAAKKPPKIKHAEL

[19] = target: Sodium-dependent serotonin transporter (Homo sapiens, UniProt P31645); test: Inhibition of SERT receptor (unknown origin) assessed as binding constant
[20] = Plasma protein binding in mouse assessed as compound remaining at 5 hrs; type: ADME, cell-free
[21] = Plasma protein binding in rat assessed as compound remaining at 5 hrs; type: ADME, cell-free
[22] = Prodrug conversion in aqueous medium at pH 7.4 assessed as conversion of 4-(4-((1S,4S,5S)-2-(Ethoxycarbonyl)-2-azabicyclo[2.2.1]heptan-5-yl)phenyl)-7-(4-(trifluoro-methyl)phenyl)-2-naphthoic acid at 72 hrs by HPLC analysis; type: ADME; details: buffer, pH 7.4, 72 h
[23] = target: Kappa-type opioid receptor (Homo sapiens, UniProt P41145); test: Inhibition of KOR (unknown origin) assessed as binding constant
Mus musculus [24] = test: Antiinflammatory activity in C57BL/6J mouse model of ovalbumin/Aspergillus-induced allergic asthma assessed as reduction in eosinophil counts in BALF at 10 mg/kg, ip administered 30 mins prior to allergen challenge and measured after 16 days; type: functional, organism-based; details: time 16.0 day
Mus musculus [25] = test: Antiinflammatory activity in C57BL/6J mouse model of ovalbumin/Aspergillus-induced allergic asthma assessed as reduction in macrophage counts in BALF at 10 mg/kg, ip administered 30 mins prior to allergen challenge and measured after 16 days; type: functional, organism-based; details: time 16.0 day
Mus musculus [26] = test: Antiinflammatory activity in C57BL/6J mouse model of ovalbumin/Aspergillus-induced allergic asthma assessed as reduction in neutrophil counts in BALF at 10 mg/kg, ip administered 30 mins prior to allergen challenge and measured after 16 days; type: functional, organism-based; details: time 16.0 day
Mus musculus [27] = test: Reversal of CCI-induced mechano-allodynia in Hsd:ICR (CD-1) mouse model of neuropathic pain at 10 micromol/kg, ip measured after 3 hrs; type: functional, organism-based; details: dose 10.0 µmol/kg
Mus musculus [28] = test: Reversal of CCI-induced mechano-allodynia in Hsd:ICR (CD-1) mouse model of neuropathic pain at 10 micromol/kg, ip measured after 5 hrs; type: functional, organism-based; details: dose 10.0 µmol/kg
Mus musculus [29] = test: Antiinflammatory activity in C57BL/6J mouse model of ovalbumin/Aspergillus-induced allergic asthma assessed as reduction in allergic inflammation at 10 mg/kg, ip administered 30 mins prior to allergen challenge and measured after 16 days; type: functional, organism-based; details: time 16.0 day
Mus musculus [30] = test: Antiinflammatory activity in C57BL/6J mouse model of ovalbumin/Aspergillus-induced allergic asthma assessed as reduction in recruitment of neutrophils into airway at 10 mg/kg, ip administered 30 mins prior to allergen challenge and measured after 16 days; type: functional, organism-based; details: time 16.0 day
Mus musculus [31] = test: Antiinflammatory activity in C57BL/6J mouse model of ovalbumin/Aspergillus-induced allergic asthma assessed as reduction in recruitment of eosinophils into airway at 10 mg/kg, ip administered 30 mins prior to allergen challenge and measured after 16 days; type: functional, organism-based; details: time 16.0 day
Mus musculus [32] = test: Antiinflammatory activity in C57BL/6J mouse model of ovalbumin/Aspergillus-induced allergic asthma assessed as reduction in recruitment of lymphocytes into airway at 10 mg/kg, ip administered 30 mins prior to allergen challenge and measured after 16 days; type: functional, organism-based; details: time 16.0 day

Chain of Sigma intracellular receptor 2 (Q5BJF2 whole entry): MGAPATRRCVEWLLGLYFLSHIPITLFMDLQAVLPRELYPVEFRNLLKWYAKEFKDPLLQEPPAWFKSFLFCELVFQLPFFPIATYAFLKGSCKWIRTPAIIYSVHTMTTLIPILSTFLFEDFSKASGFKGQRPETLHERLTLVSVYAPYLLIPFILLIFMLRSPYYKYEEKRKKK
Chain of Kappa-type opioid receptor (P41145 whole entry): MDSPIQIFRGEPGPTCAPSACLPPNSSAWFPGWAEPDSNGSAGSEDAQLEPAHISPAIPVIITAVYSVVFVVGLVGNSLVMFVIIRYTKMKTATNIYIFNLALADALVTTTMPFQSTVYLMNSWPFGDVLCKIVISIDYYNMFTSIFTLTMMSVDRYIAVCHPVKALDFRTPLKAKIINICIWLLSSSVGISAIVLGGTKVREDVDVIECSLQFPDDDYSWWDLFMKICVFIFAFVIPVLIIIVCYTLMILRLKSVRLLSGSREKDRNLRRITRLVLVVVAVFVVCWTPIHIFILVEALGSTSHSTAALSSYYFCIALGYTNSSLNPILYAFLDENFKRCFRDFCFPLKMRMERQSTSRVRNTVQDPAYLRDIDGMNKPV
Chain of Sodium-dependent serotonin transporter (P31645 whole entry): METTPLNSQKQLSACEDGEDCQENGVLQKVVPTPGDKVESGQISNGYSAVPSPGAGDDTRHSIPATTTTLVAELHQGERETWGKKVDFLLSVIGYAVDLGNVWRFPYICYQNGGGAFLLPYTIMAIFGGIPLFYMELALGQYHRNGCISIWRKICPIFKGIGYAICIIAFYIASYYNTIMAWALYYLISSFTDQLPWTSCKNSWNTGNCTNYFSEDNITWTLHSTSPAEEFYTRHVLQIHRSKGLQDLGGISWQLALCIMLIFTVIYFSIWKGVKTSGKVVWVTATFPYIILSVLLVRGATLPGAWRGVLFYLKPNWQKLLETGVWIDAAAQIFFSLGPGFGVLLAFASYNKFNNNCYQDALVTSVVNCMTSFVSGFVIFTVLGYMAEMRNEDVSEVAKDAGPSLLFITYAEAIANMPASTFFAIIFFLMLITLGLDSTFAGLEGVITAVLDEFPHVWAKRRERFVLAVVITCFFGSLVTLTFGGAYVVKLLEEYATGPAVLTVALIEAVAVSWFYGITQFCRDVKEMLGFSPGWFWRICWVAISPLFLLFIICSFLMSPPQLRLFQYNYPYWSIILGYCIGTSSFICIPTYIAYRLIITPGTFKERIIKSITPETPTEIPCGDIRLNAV

| Structure (SMILES) | Ki [1] [µM] | Stability [2] [%] | Stability [3] [%] | Stability [4] [%] | Stability [5] [%] | t1/2 [6] [h] | t1/2 [7] [h] | t1/2 [8] [h] | IC50 (HepG2) [µM] | half-life [9] [h] | half-life [10] [h] | PPB [11] [%] | PPB [12] [%] | PPB [13] [%] | half-life (liver carboxylesterase) [h] | Drug metabolism [22] [%] | logD ([16]; read-out: logD) | other results |
| --- | --- | --- | --- | --- | --- | --- | --- | --- | --- | --- | --- | --- | --- | --- | --- | --- | --- | --- |
| O=C(O)c1cc(-c2ccc([C@@H]3C[C@@H]4C[C@H]3NC4=O)cc2)c2ccc(-c3ccc(C(F)(F)F)cc3)cc2c1 | 2.1 | 100 | 59.3 | 74.7 | 74.1 | > 16.67 | 1.49 | 12.5 | 9.34 | 2.11 | 4.59 | 99.74 | 96.18 | 98.89 |  |  |  | Activity (Mus musculus [14]): Active |
| O=C(O)c1cc(-c2ccc([C@H]3C[C@H]4C[C@@H]3CN4)cc2)c2ccc(-c3ccc(C(F)(F)F)cc3)cc2c1 [listing 1 of 2 here] | 0.71 | 99.1 | 100 | 82.8 | 100 | 4.05 | 1.52 | 4.67 | 11 | 7.24 | 8.94 | 99.76 | 99.79 | 87.98 |  |  |  | solubility [15]: 1.22 µg/mL (≈ 2.5 µM); logD [16]: 1.9; Activity [17]: Non-Toxic |
| CN(C)C(=O)COC(=O)c1cc(-c2ccc([C@H]3C[C@H]4C[C@@H]3CN4)cc2)c2ccc(-c3ccc(C(F)(F)F)cc3)cc2c1 | 0.39 |  |  |  |  |  |  |  |  |  |  |  |  | 99.7 | > 72 | 59 |  | Ki [18]: > 1 µM; Ki [19]: > 1 µM; Fu [20]: 0%; Fu [21]: 0.72% |
| O=C(O)c1cc(-c2ccc(C3CCNC3)cc2)c2ccc(-c3ccc(C(F)(F)F)cc3)cc2c1 (racemic) | 1.2 |  |  |  |  |  |  |  |  |  |  |  |  |  |  |  | 1.9 | Ki [23]: > 1 µM |
| O=C(O)c1cc(-c2ccc([C@H]3C[C@H]4C[C@@H]3CN4)cc2)c2ccc(-c3ccc(C(F)(F)F)cc3)cc2c1 [listing 2 of 2 here] |  |  |  |  |  |  |  |  |  |  |  |  |  |  |  |  |  | Activity (Mus musculus [24]): Active; Activity (Mus musculus [25]): inactive; Activity (Mus musculus [26]): Active; Activity (Mus musculus [27]): Active; Activity (Mus musculus [28]): inactive; Activity (Mus musculus [29]): Active |
| CCOC(=O)N1C[C@H]2C[C@@H]1C[C@@H]2c1ccc(-c2cc(C(=O)OCC(=O)N(C)C)cc3cc(-c4ccc(C(F)(F)F)cc4)ccc23)cc1 |  |  |  |  |  |  |  |  |  |  |  |  |  |  | > 72 | 3 | 6 | Activity (Mus musculus [30]): Active; Activity (Mus musculus [31]): Active; Activity (Mus musculus [32]): Active |
